We go through 14 compounds from ChEMBL document CHEMBL3407370, “Potent acetylcholinesterase inhibitors: design, synthesis, biological evaluation, and docking study of acridone linked to 1,2,3-triazole derivatives” (Eur J Med Chem, 2015).

Each structure is given as a SMILES string.

One series addresses Cholinesterase (Equus caballus, UniProt P81908). Kind of series: Inhibition of equine serum butylcholinesterase using acetylthiocholine iodide as substrate after 15 mins by Ellman's method. A general note: In Ellman's method for cholinesterases, released thiocholine reacts with DTNB.
A further series has as its target Acetylcholinesterase (Electrophorus electricus, UniProt O42275). Kind of series: Inhibition of electric eel acetylcholinesterase using acetylthiocholine iodide as substrate after 15 mins by Ellman's method.
The nature of series [1]: Antioxidant activity assessed as DPPH radical scavenging activity incubated in dark condition measured after 30 mins by UV/vis spectrophotometric analysis. Format: physicochemical. On the technique in general: Loss of DPPH colour is used to gauge radical scavenging.
The nature of series [2]: Antioxidant activity assessed as DPPH radical scavenging activity at 700 ug/ml incubated in dark condition measured after 30 mins by UV/vis spectrophotometric analysis relative to control. The class given is physicochemical. The settings on record: 0.5 h.

Sequence of Cholinesterase (P81908 whole entry): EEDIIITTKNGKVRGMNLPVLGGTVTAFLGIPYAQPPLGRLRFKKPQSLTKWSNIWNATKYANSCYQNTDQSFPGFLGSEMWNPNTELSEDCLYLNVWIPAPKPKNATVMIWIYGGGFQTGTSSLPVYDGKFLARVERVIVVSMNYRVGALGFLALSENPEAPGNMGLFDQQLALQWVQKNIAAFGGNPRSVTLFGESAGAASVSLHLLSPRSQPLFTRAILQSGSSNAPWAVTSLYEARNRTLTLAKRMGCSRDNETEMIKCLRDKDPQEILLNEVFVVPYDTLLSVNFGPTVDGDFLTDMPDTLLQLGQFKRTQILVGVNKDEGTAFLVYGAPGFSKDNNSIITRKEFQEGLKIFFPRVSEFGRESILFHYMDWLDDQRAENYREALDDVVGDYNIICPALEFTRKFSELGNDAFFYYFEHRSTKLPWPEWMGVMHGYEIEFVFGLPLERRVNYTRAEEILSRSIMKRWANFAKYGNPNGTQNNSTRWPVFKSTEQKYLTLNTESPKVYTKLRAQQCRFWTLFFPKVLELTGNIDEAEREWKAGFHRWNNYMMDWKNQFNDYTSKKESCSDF
Sequence of Acetylcholinesterase (O42275 whole entry): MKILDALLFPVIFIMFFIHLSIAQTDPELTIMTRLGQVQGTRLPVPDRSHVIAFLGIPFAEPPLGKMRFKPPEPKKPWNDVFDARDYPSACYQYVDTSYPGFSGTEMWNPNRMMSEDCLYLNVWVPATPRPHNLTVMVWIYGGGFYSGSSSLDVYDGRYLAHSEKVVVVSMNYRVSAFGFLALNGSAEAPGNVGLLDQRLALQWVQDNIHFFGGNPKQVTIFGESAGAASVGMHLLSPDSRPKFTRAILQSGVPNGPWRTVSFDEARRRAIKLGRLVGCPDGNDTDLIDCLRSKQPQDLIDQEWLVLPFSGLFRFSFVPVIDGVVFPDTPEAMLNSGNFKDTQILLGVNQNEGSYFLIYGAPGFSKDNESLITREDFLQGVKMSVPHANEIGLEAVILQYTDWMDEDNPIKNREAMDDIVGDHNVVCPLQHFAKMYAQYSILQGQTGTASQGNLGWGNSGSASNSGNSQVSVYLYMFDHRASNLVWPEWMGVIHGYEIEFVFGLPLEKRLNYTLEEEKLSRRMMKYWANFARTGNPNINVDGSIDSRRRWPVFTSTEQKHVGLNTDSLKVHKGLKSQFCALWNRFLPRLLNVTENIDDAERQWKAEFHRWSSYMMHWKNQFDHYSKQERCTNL

`O=c1c2ccccc2n(Cc2cn(Cc3ccccc3)nn2)c2ccccc12`: the IC50 at Cholinesterase and against Acetylcholinesterase was at least 100 µM throughout.
Turning to `O=c1c2ccccc2n(Cc2cn(Cc3ccc(Cl)cc3)nn2)c2ccccc12`, the EC50 in series [1] was over 333 µg/mL. Besides, the “inhibition (INH)” value in series [2] came out at 21.78%. Further, the IC50 against Cholinesterase was at least 100 µM; at Acetylcholinesterase it was 59.7 µM.
In the same order, the values of `O=c1c2ccccc2n(Cc2cn(Cc3ccccc3)nn2)c2ccc(Cl)cc12` are over 700 µg/mL, 26.6%, at least 100 µM and 88.1 µM.
With `O=c1c2ccccc2n(Cc2cn(Cc3ccc(Cl)cc3)nn2)c2ccc(Cl)cc12`, the IC50 on Cholinesterase was at least 100 µM; against Acetylcholinesterase, 17.7 µM.
In the same order, the values of `O=c1c2ccccc2n(Cc2cn(Cc3ccc([N+](=O)[O-])cc3)nn2)c2ccc(Cl)cc12` are at least 100 µM and 38.3 µM.
Take `COc1ccc2c(c1)c(=O)c1ccccc1n2Cc1cn(Cc2ccccc2)nn1`: the EC50 in series [1] was over 700 µg/mL. Besides, the “inhibition (INH)” value in series [2] amounted to 8.65%. Besides, the IC50 on Cholinesterase was at least 100 µM; against Acetylcholinesterase, 24 µM.
`COc1ccc2c(c1)c(=O)c1ccccc1n2Cc1cn(Cc2ccc(Cl)cc2)nn1`: the values for the IC50 against Cholinesterase and against Acetylcholinesterase were at least 100 µM and 7.31 µM, respectively.
With `O=c1c2ccccc2n(Cc2cn(Cc3ccccc3)nn2)c2ccc(Br)cc12`, the values for the IC50 against Cholinesterase and at Acetylcholinesterase were at least 100 µM and 68.1 µM, respectively.
The matching figures for `O=c1c2ccccc2n(Cc2cn(Cc3ccc(Cl)cc3)nn2)c2ccc(Br)cc12`: at least 100 µM and 45.6 µM.
In the same order, the values of `O=c1c2ccccc2n(Cc2cn(Cc3ccc([N+](=O)[O-])cc3)nn2)c2ccc(Br)cc12` are at least 100 µM and 52.8 µM.
With `Cc1ccc2c(c1)c(=O)c1ccccc1n2Cc1cn(Cc2ccccc2)nn1`, the EC50 in series [1] was over 333 µg/mL. Further, in series [2], the “inhibition (INH)” value came out at 7.09%. Moreover, the IC50 against Cholinesterase and against Acetylcholinesterase was at least 100 µM throughout.
In the case of `Cc1ccc2c(c1)c(=O)c1ccccc1n2Cc1cn(Cc2ccc(Cl)cc2)nn1`, the IC50 on Cholinesterase was determined as 87.2 µM; at Acetylcholinesterase, 10.8 µM.
`O=c1c2ccccc2n(Cc2cn(Cc3ccccc3)nn2)c2c(F)cccc12`: the EC50 in series [1] was over 700 µg/mL. Besides, the “inhibition (INH)” value in series [2] came out at 14.79%. The IC50 at Cholinesterase and against Acetylcholinesterase was at least 100 µM throughout.
In the case of `O=c1c2ccccc2n(Cc2cn(Cc3ccc(Cl)cc3)nn2)c2c(F)cccc12`, the IC50 on Cholinesterase was at least 100 µM; on Acetylcholinesterase, 24.5 µM.

For orientation: IC50 means the concentration that inhibits the measured activity by half. The term EC50 denotes the concentration that produces a half-maximal response.
